pIC50: −log10 of the molar value.
Assays:
Format in all cases: biochemical
kinases [1] = target: kinases (Homo sapiens, UniProt P15056, V600E); experiment: Kinase selectivity using Z'-LYTE or Adapta; settings: 1 μM of Example; Z-LYTE platform
kinases [2] = experiment: Kinase selectivity using Z'-LYTE or Adapta; settings: 1 μM of Example; for percent inhibition IRAK1: Adapta platform; for percent inhibition AURKB (Aurora B) / percent inhibition CDK1/cyclin B / percent inhibition CHEK2 (CHK2) / percent inhibition CLK2 / percent inhibition DYRK1A / percent inhibition JAK3 / percent inhibition MAPK1 (ERK2) / percent inhibition MAPK8 (JNK1): Z-LYTE platform
[3] = target: T1, LRRK2(G2019S mutation, GST-LRRK2(amino acids 970-2527)) (Homo sapiens (Human), UniProt Q5S007, G2019S); experiment: LRRK2 Km ATP LanthaScreen Assay; settings: Km ATP (184 μM ATP solution), G2019S LRRK2, mean IC50
Summary of the method: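 TR-FRET: GST-LRRK2 970-2527 G2019S (2.5 nM solution) preincubated 30 min with compound (98 μM top, 1:2.15 dilutions), then 800 nM fluorescein-LRRKtide and 184 μM ATP solution added for 60 min at room temperature in Tris pH 8.5 buffer. Stopped with EDTA and Tb anti-phospho-LRRKtide antibody; IC50 is a mean of several tests.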

[4] = target: T1, LRRK2(G2019S mutation, GST-LRRK2(amino acids 970-2527)); experiment: LRRK2 5 mM ATP LanthaScreen Assay
Protocol: The data presented for the 5 mM and Km ATP LanthaScreen™ Assay represents mean IC50 values based on several test results and may have reasonable. deviations depending on the specific conditions and reagents used. Reagents for the LRRK2 5 mM and Km ATP LanthaScreen™ Assay were purchased from Life Technologies Corporation.
LRRK2 5 mM ATP LanthaScreen™ Assay
a) 400 nl of a 1:2.15 serial dilution of test compound(98 μM top assay concentration) is spotted via Labcyte Echo to certain wells in a 384 well black, untreated plate. Control wells contain 400 nl of either DMSO or 400 nl of a known inhibitor in DMSO.
b) 10 μl of a 2.5 nM LRRK2(G2019S mutation, GST-LRRK2(amino acids 970-2527)) enzyme solution in 1× assay buffer(50 mM Tris pH 8.5, 10 mM MgCl2, 0.01% Brij-35, 1.0 mM EGTA, 2 mM DTT, 0.05 mM NaVO4) is added to all wells.
c) A 30 minute room temperature incubation is followed by addition of 10 μl of 800 nM fluorescein labeled LRRKtide peptide substrate and 10 mM ATP solution in 1× assay buffer to all wells.
d) After a 35 minute room temperature incubation, 20 μl of TR-FRET Dilution Buffer(Invitrogen PV3756B) containing 4 nM Tb-labeled anti-phospho LRRKtide antibody and 20 mM EDTA is added to all wells.
e) Plates are incubated at room temperature for 1 hour and read on an Envision™ multi-mode plate reader with LanthaScreen™ settings. Results are analysed using Assay Data Analyzer.

Chain of kinases (Homo sapiens, UniProt P15056, V600E) (P15056 2-766 V600E limits assumed): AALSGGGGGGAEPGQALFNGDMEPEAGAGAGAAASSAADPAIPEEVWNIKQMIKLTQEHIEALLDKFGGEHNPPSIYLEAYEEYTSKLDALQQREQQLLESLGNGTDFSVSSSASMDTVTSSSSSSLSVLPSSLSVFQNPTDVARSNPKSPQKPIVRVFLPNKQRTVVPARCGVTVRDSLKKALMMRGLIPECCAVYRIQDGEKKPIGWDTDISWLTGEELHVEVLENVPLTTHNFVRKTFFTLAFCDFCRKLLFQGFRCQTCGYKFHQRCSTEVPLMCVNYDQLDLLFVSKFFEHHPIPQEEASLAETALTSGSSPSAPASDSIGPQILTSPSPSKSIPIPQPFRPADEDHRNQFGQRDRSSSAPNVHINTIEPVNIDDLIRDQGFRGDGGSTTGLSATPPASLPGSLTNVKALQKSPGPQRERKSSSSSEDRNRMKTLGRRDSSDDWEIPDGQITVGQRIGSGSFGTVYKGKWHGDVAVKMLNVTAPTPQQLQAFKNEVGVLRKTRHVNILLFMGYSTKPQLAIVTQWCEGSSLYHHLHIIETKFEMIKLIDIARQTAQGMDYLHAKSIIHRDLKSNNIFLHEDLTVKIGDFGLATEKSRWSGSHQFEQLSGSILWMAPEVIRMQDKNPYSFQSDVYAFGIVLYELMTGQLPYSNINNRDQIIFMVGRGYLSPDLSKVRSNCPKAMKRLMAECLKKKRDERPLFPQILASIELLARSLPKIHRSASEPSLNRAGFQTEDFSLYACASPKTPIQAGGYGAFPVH
T1 sequence (Q5S007 970-2527 G2019S): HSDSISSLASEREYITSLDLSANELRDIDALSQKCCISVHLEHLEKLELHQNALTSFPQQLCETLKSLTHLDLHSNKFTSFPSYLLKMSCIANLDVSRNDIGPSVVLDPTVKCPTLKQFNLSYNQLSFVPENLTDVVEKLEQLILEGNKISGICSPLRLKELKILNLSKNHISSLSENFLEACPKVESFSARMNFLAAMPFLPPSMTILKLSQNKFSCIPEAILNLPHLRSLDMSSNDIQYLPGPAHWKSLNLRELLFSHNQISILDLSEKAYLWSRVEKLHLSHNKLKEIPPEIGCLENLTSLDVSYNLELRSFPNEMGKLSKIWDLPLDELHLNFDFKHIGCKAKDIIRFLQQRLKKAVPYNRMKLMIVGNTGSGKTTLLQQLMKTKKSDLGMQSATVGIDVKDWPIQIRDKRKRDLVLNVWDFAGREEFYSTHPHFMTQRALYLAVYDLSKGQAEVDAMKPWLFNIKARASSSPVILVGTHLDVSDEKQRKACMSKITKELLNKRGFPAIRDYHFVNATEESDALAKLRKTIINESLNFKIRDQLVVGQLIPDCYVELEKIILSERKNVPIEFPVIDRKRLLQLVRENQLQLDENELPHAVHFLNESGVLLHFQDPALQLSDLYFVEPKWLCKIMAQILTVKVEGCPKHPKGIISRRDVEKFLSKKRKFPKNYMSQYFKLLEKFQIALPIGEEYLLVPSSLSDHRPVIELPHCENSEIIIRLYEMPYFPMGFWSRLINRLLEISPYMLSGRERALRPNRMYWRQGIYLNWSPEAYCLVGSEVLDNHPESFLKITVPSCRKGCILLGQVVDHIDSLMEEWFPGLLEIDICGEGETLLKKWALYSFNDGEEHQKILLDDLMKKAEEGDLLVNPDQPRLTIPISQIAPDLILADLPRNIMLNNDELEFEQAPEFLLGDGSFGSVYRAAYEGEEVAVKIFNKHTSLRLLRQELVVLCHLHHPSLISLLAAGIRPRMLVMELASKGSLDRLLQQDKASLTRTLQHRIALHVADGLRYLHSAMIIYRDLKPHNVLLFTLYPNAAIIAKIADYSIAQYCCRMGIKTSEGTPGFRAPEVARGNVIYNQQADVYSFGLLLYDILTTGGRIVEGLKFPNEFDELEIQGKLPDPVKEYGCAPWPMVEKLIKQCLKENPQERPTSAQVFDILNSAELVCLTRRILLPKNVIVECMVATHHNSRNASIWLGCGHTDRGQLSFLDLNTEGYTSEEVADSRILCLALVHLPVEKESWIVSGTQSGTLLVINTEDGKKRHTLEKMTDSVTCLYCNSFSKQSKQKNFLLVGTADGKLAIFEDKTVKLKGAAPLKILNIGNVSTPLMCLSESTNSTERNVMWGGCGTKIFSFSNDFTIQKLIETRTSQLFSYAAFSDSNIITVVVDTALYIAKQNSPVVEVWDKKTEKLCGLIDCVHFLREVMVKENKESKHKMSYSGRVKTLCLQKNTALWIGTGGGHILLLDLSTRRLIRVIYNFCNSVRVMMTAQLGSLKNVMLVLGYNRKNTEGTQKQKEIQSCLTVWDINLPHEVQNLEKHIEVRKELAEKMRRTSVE

SMILES: CC(C)Oc1cc2c(-c3cc(N4CCN(C)CC4)ncn3)n[nH]c2cc1F [Example D25]
- percent inhibition BRAF V599E (kinases [1]): 7%
- percent inhibition IRAK1 (kinases [2]): 15%
- percent inhibition AURKB (Aurora B) (kinases [2]): 14%
- percent inhibition CDK1/cyclin B (kinases [2]): 17%
- percent inhibition CHEK2 (CHK2) (kinases [2]): 8%
- percent inhibition CLK2 (kinases [2]): 89%
- percent inhibition DYRK1A (kinases [2]): 39%
- percent inhibition JAK3 (kinases [2]): 8%
- percent inhibition MAPK1 (ERK2) (kinases [2]): 0%
- percent inhibition MAPK8 (JNK1) (kinases [2]): 56%
- pIC50 [3]: 8.36

SMILES: CC(C)Oc1cc2c(-c3cc(N4C[C@@H](C)O[C@@H](C)C4)ncn3)n[nH]c2cc1F [Example D41]
- pIC50 [4]: 7.66
- pIC50 [3]: 8.54

SMILES: Cn1cc(-c2ccc3[nH]nc(-c4cc(N5CCN(S(C)(=O)=O)CC5)ncn4)c3c2)cn1 [Example A3]
- pIC50 [4]: 7.44
- pIC50 [3]: 8.48

SMILES: COCCN1CCN(c2cc(-c3n[nH]c4ccc(OC(C)C)cc34)ncn2)CC1 [Example K10]
- pIC50 [4]: 7.62
- pIC50 [3]: 8.31

SMILES: CC(C)Oc1ccc2[nH]nc(-c3cc(N4CCN(CCF)CC4)ncn3)c2c1 [Example D15]
- pIC50 [4]: 7.47
- percent inhibition BRAF V599E (kinases [1]): 28%
- percent inhibition IRAK1 (kinases [2]): −3%
- percent inhibition AURKB (Aurora B) (kinases [2]): 18%
- percent inhibition CDK1/cyclin B (kinases [2]): 10%
- percent inhibition CHEK2 (CHK2) (kinases [2]): 13%
- percent inhibition CLK2 (kinases [2]): 70%
- percent inhibition DYRK1A (kinases [2]): 30%
- percent inhibition JAK3 (kinases [2]): 9%
- percent inhibition MAPK1 (ERK2) (kinases [2]): 16%
- percent inhibition MAPK8 (JNK1) (kinases [2]): 56%
- pIC50 [3]: 8.26

SMILES: COC[C@H](C)Oc1ccc2[nH]nc(-c3cc(N4CCOCC4)ncn3)c2c1 [Example H4]
- pIC50 [4]: 7.48
- pIC50 [3]: 8.59

SMILES: CC(C)Oc1ccc2[nH]nc(-c3cc(N4CCC5(CCNC5=O)CC4)ncn3)c2c1 [Example D32]
- pIC50 [4]: 7.52
- pIC50 [3]: 8.64

SMILES: Cn1cc(-c2ccc3[nH]nc(-c4cc(N5CCOCC5)ncn4)c3c2)cn1 [Example A1]
- pIC50 [4]: 7.39
- pIC50 [3]: 8.64

SMILES: CC(C)Oc1ccc2[nH]nc(-c3cc(N4CCOCC4)ncn3)c2c1 [Example D6]
- pIC50 [4]: 7.02
- percent inhibition BRAF V599E (kinases [1]): 2%
- percent inhibition IRAK1 (kinases [2]): −1%
- percent inhibition AURKB (Aurora B) (kinases [2]): 16%
- percent inhibition CDK1/cyclin B (kinases [2]): 7%
- percent inhibition CHEK2 (CHK2) (kinases [2]): 7%
- percent inhibition CLK2 (kinases [2]): 66%
- percent inhibition DYRK1A (kinases [2]): 12%
- percent inhibition JAK3 (kinases [2]): 5%
- percent inhibition MAPK1 (ERK2) (kinases [2]): 7%
- percent inhibition MAPK8 (JNK1) (kinases [2]): 28%
- pIC50 [3]: 8.23

SMILES: CC(C)Oc1ccc2[nH]nc(-c3cc(N4CCO[C@H](C)C4)ncn3)c2c1 [Example D2]
- pIC50 [4]: 7.17
- percent inhibition BRAF V599E (kinases [1]): −11%
- percent inhibition IRAK1 (kinases [2]): −7%
- percent inhibition AURKB (Aurora B) (kinases [2]): 9%
- percent inhibition CDK1/cyclin B (kinases [2]): 7%
- percent inhibition CHEK2 (CHK2) (kinases [2]): 1%
- percent inhibition CLK2 (kinases [2]): 79%
- percent inhibition DYRK1A (kinases [2]): 13%
- percent inhibition JAK3 (kinases [2]): 8%
- percent inhibition MAPK1 (ERK2) (kinases [2]): 5%
- percent inhibition MAPK8 (JNK1) (kinases [2]): 28%
- pIC50 [3]: 8.29

SMILES: CCN1CCN(c2cc(-c3n[nH]c4ccc(-c5cnn(C)c5)cc34)ncn2)CC1 [Example A8]
- pIC50 [4]: 7.85
- pIC50 [3]: 9.12

SMILES: CC(C)Oc1cc2c(-c3cc(N4CCN(S(C)(=O)=O)CC4)ncn3)n[nH]c2cc1F [Example D24]
- pIC50 [4]: 7.55
- pIC50 [3]: 8.51

SMILES: COc1ccc2[nH]nc(-c3cc(N4CCN(C5CC5)CC4)ncn3)c2c1 [Example E9]
- pIC50 [3]: 7.59
